Data reported in patent US8034373B2, “Methods and compositions for reducing oxidative stress in an animal” (Nestec S. A., priority 2004, dated 2011).
Marks after values point to notes of the source that are not given here.

What was measured:
[1] = in words; cited from earlier work
[2] = tested on: Creatine Kinase; assay: Plasma creatine kinase (CK) in exercising sled dogs; format: in vivo, dog
Protocol: (§1) Three groups of twelve dogs (mixed breed Alaskan sled dogs (husky pointer crosses)) were fed commercially available Pro Plan® Performance chicken and rice formula dog food as a basal diet, and each group was fed either: a placebo consisting of about 0.5 g maltodextrin, about 2 mg astaxanthin, or about 400 mg Vitamin E (alpha-tocopherol). Pro Plan® dog food is available from Nestlé Purina Pet Care Company in St. Louis, Mo. The dogs were trained three times a week on an exercise wheel for a period of six weeks. On the sixth week, the dogs rested for four days and then exercised three days in a row. Blood samples were collected before exercise on day one, immediately after exercise on day three, and at 24 hours and 48 hours after exercise. Plasma from the blood samples was analyzed for concentrations of malondialdehyde, F-2 isoprostanes, Vitamin E, creatine kinase activity as well as oxygen radical absorption capacity (ORAC).
(§2) All the dogs were maintained on the same basal diet (Purina Pro Plan® Performance chicken and rice formula) for one month prior to the onset and the entire duration of the experiment. Each dog was fed as an individual to maintain an optimal body condition score of 4/10.
(§3) Thirty-six sled dogs were housed at the Nestle Purina facility in Salcha, Ak. The dogs were divided into three groups of 12 dogs so that each group was alike in age, sex and ability distribution. A treatment was randomly assigned to each group by drawing from a hat. Group “A” was assigned about 400 mg Vitamin E/day, group “B” was assigned about 2 mg Astaxanthin/day and group “C” was assigned about 500 mg maltodextrin as a placebo. The people responsible for feeding, care, and training of the dogs were blind as to the identity of treatments until the completion of the study. Dogs were treated for six weeks before the onset of testing. They were also trained lightly for two sessions per week during this time period. Training sessions consisted of walking at 14 kilometers per hour for 2 hours in a 40-foot diameter circle tethered to a dog-walking wheel.
The testing took place over a six day period. On day one, pre-exercise blood samples were drawn from all the dogs. On day two, the dogs ran twelve km while pulling an all terrain vehicle (ATV) weighing 500 pounds. On day three, the dogs walked 16 miles on the dog wheel. On day four, the dogs again pulled the ATV for a distance of 12 kilometers. Immediately after exercise on day four, blood samples were drawn. Additional blood samples were drawn again at 24 hours and 48 hours after exercise. This sampling schedule was designed to examine changes in the parameters measured during exercise and during recovery. Samples were obtained by jugular venipuncture and collected into evacuated glass tubes containing sodium EDTA as an anticoagulant. Once collected they were kept on ice for not more than 10 minutes before they were centrifuged at 10,000 revolutions per minute (RPM) in 4° C. for a period of 10 minutes. […] The vials were recovered from liquid nitrogen and stored at −70° C. until analyzed. Each plasma sample was analyzed for malondialdehyde concentration using a standard HPLC, F2-isoprostane concentration utilizing a mass spectrometer and standard ELISA, Vitamin E concentration utilizing a standard HPLC, and Oxidative Radical Absorbance Capacity (ORAC test kit, Oxford Co.
F2 isoprostane and CK data was evaluated using a two way ANOVA for repeated measures. […] The other data was also evaluated using ANOVA. […]

[3] = tested on: F2-isoprostane; assay: Plasma F2-isoprostane (F2I) in exercising sled dogs; format: in vivo, dog; settings: for Plasma F2I compared to the placebo group: in words
Protocol: as §1, §2, §3
(§4) The testing took place over a six day period. On day one, pre-exercise blood samples were drawn from all the dogs. On day two, the dogs ran twelve km while pulling an all terrain vehicle (ATV) weighing 500 pounds. On day three, the dogs walked 16 miles on the dog wheel. On day four, the dogs again pulled the ATV for a distance of 12 kilometers. Immediately after exercise on day four, blood samples were drawn. Additional blood samples were drawn again at 24 hours and 48 hours after exercise. This sampling schedule was designed to examine changes in the parameters measured during exercise and during recovery. Samples were obtained by jugular venipuncture and collected into evacuated glass tubes containing sodium EDTA as an anticoagulant. Once collected they were kept on ice for not more than 10 minutes before they were centrifuged at 10,000 revolutions per minute (RPM) in 4° C. for a period of 10 minutes. The plasma was transferred into freezer vials where the dead space was replaced with gaseous nitrogen to decrease further oxidation during storage. The vials were then capped and immediately quenched in liquid nitrogen. The vials were recovered from liquid nitrogen and stored at −70° C. until analyzed. Each plasma sample was analyzed for malondialdehyde concentration using a standard HPLC, F2-isoprostane concentration utilizing a mass spectrometer and standard ELISA, Vitamin E concentration utilizing a standard HPLC, and Oxidative Radical Absorbance Capacity (ORAC test kit, Oxford Co.
(§5) F2 isoprostane and CK data was evaluated using a two way ANOVA for repeated measures. Post hoc comparisons were made using a student's t test corrected for repeated measures by the Bonneferroni method. Statistical significance was set at p<0.05. The other data was also evaluated using ANOVA. The abbreviation “se” used with respect to the data in the tables below refers to standard error.

[4] = Plasma Vitamin E in exercising sled dogs
Protocol: as §1, §2, §3, §4, §5

[5] = tested on: total ORAC; assay: Plasma total Oxidative Radical Absorptive Capacity (ORAC) in exercising sled dogs; format: in vivo, dog; settings: for ORAC improvement by supplementation: any of the time periods measured, in words
Protocol: as §1, §2, §3, §4, §5

[6] = tested on: malondialdehyde; assay: Plasma malondialdehyde (MDA) in exercising sled dogs; format: in vivo, dog
Protocol: as §1, §2, §3, §4, §5

[7] = Antibody titers against an antigen; format: in vivo, dog; settings: animals fed a diet containing astaxanthin vs control animals
Protocol: (§6) To assess the effect of astaxanthin supplementation on immune function, dogs may be fed a diet containing astaxanthin and/or Vitamin E for 16 weeks. The amount of astaxanthin used may be 0, 1, 5, 10, 20, and 40 mg per animal per day. Various assays may be performed to assess immune function.
Control animals and animals fed a diet containing astaxanthin may also be assessed for the robustness of the immune response against an antigen. For example, antibody titers against an antigen may be measured for control animals and animals fed a diet containing astaxanthin.

[8] = tested on: osteoarthritis; assay: Osteoarthritis diet study: plasma and synovial fluid markers, gait; format: in vivo, dog
Excerpt: A diet supplemented with astaxanthin may be shown to reduce inflammation and associated pain in osteoarthritis. […] At 12 weeks of treatment, plasma and synovial fluid samples are taken from each animal and assayed for total antioxidant activity, and levels of malionaldehyde, prostaglandin, isoprostanes, MMPs and TIMPs. Additionally, the gait of the dogs may be assessed using standard force plate analyses.

[9] = cited from earlier work
[10] = tested on: peripheral blood mononuclear cells (PBMCs); assay: In vitro lymphoproliferation of stimulated PBMC; format: cell-based, dog; settings: astaxanthin added directly to the media during stimulation
[11] = tested on: cataract formation; assay: In vivo cataract formation study, slit-lamp test; set-up: species or system dog; settings: dogs, e.g. two year study; astaxanthin optionally with Vitamin E, lutein, zeaxanthin, zinc
Excerpt: In a model study, 40 dogs could be chosen and randomly allocated to either the control group or to a treatment group receiving AAFCO recommended levels of antioxidants. The treatment group would receive astaxanthin and may also receive one or more of Vitamin E, lutein, zeaxanthin and zinc.

[12] = reported; in words; cited from earlier work
[13] = Delayed-type hypersensitivity skin reactions; format: in vivo, dog; settings: animals fed a diet containing astaxanthin vs control animals
Protocol: as §6
Delayed-type hypersensitivity may also be assessed in animals given a diet supplemented with astaxanthin. In these assays, control animals and animals fed a diet containing astaxanthin are given cutaneous injections of saline, a mitogen or a vaccine of distemper virus. The animals are then assessed to measure the skin reactions to mitogen, virus and control. In animals fed a diet containing astaxanthin, the skin reactions are more robust for virus and mitogen than that found in control animals.

[14] = tested on: canine lens epithelial cells; assay: UV-stressed canine lens epithelial cells supplemented with astaxanthin; format: cell-based
Excerpt: An in vitro experiment may be performed using canine lens epithelial cells supplemented with astaxanthin at physiological levels.

[15] = tested on: natural killer (NK) cells; assay: NK cell cytotoxicity of cells from animals fed astaxanthin; format: in vivo, dog; settings: animals fed a diet containing astaxanthin vs control animals
Protocol: as §6
In another assay, natural killer (NK) cell cytotoxicity is assessed for NK cells isolated from animals that are fed a diet including astaxanthin supplementation.

[16] = Pre-ex, sled dogs, about 2 mg astaxanthin/day or about 400 mg Vitamin E/day for six weeks

In the case of `Cc1c(C)c2c(c(C)c1O)CC[C@@](C)(CCC[C@H](C)CCC[C@H](C)CCCC(C)C)O2` [Vitamin E, alpha-tocopherol], the “solubility (lipid / water compartments of the cell)” value [1] is listed as “lipid soluble only”, the “Plasma Creatine Kinase (mean)” value ([2]; 24 hour post, same treatment) is listed as 184 and the “Plasma Creatine Kinase (mean)” value ([2]; 48 hour post, same treatment) is listed as 204. The “Plasma Creatine Kinase (mean)” value ([2]; Post-ex, same treatment) was 208, the “Plasma Creatine Kinase (mean)” value [2, 16] was 139 and the “Plasma F2 Isoprostane concentration (mean)” value ([3]; 24 hour post, same treatment) was 130. For the same compound, the “Plasma F2 Isoprostane concentration (mean)” value ([3]; 48 hour post, same treatment) was 78, the “Plasma F2 Isoprostane concentration (mean)” value ([3]; Post-ex, same treatment) was 223 and the “Plasma F2 Isoprostane concentration (mean)” value [3, 16] was 144. For the same compound, the “Plasma F2I compared to the placebo group” value [3] was “not different from the placebo value except at the 24 hour post-exercise time period where it was lower”, the “Plasma Vitamin E (mean)” value ([4]; 24 hour post, same treatment) was 4720 and the “Plasma Vitamin E (mean)” value ([4]; 48 hour post, same treatment) was 4520. For the same compound, the “Plasma Vitamin E (mean)” value ([4]; Post-ex, same treatment) was 3540, the “Plasma Vitamin E (mean)” value [4, 16] was 3370 and the “Plasma Vitamin E concentration compared between treatment groups” value ([4]; all time periods, in words) was “greatest”. For the same compound, the “Plasma total ORAC (mean)” value ([5]; 24 hour post, same treatment) was 7590, the “Plasma total ORAC (mean)” value ([5]; 48 hour post, same treatment) was 4840 and the “Plasma total ORAC (mean)” value ([5]; Post-ex, same treatment) was 5850. The “Plasma total ORAC (mean)” value [5, 16] was 7480, the “ORAC improvement by supplementation” value [5] was “not improved” and the “Plasma MDA (mean)” value ([6]; 24 hour post, same treatment) was 1.44. For the same compound, the “Plasma MDA (mean)” value ([6]; 48 hour post, same treatment) was 1.44, the “Plasma MDA (mean)” value ([6]; Post-ex, same treatment) was 1.17 and the “Change in Plasma MDA from Baseline” value ([6]; Pre to 24 hour post) was −0.071. The “Change in Plasma MDA from Baseline” value ([6]; Pre to 48 hour Post) was −0.069, the “Change in Plasma MDA from Baseline” value ([6]; Pre to Post) was −0.336* and the “Plasma MDA (mean)” value [6, 16] was 1.51.

In the case of `CC1=C(/C=C/C(C)=C/C=C/C(C)=C/C=C/C=C(C)/C=C/C=C(C)/C=C/C2=C(C)C(=O)[C@@H](O)CC2(C)C)C(C)(C)C[C@H](O)C1=O` [ATX, astaxanthin], the “solubility (lipid / water compartments of the cell)” value [1] is listed as “soluble in both lipid and water compartments of the cell”, the “antibody titers against an antigen” value [7] is listed as “higher antibody titers” and the “gait (force plate analyses)” value ([8]; 12 weeks, compared to controls) is listed as “significant improvement in gait”. The “isoprostanes, total antioxidant activity and MMPs” value ([8]; plasma and synovial fluid, 12 weeks, 1, 5, 10, 20, or 40 mg per animal per day) was “decrease”, the “in vitro oxygen radical absorptive capacity relative to Vitamin E” value [9] was 4 times and the “proliferation of PBMC” value [10] was “increases proliferation of cells significantly more”. For the same compound, the “Plasma CK compared to the Vitamin E group” value ([2]; all time periods but 24 hours post-exercise, in words) was “lower CK values than the Vitamin E group”, the “cataract formation and severity (slit-lamp test)” value [11] was “control group has significantly more cataract formation” and the “Plasma F2 Isoprostane concentration (mean)” value ([3]; 24 hour post, same treatment) was 90. The “Plasma F2 Isoprostane concentration (mean)” value ([3]; 48 hour post, same treatment) was 66, the “Plasma F2 Isoprostane concentration (mean)” value ([3]; Post-ex, same treatment) was 52 and the “Plasma F2I compared to the placebo group” value [3] was “lower F2I values immediately post-exercise and at 24 hours post-exercise”. For the same compound, the “potency in preventing lipid peroxidation and scavenging free radicals” value [12] was “more potent than Vitamin E or Vitamin C”, the “skin reactions to virus and mitogen (delayed-type hypersensitivity)” value [13] was “more robust” and the “free radical formation and lipid peroxidation products” value ([14]; canine lens epithelia stressed with UV light, astaxanthin at physiological levels) was “significantly reduce”. The cell death ([14]; canine lens epithelial cells stressed with UV light) was “significantly less cell death”, the “Plasma Vitamin E concentration compared between treatment groups” value ([4]; dog, in vivo) was “no significant difference” and the “Plasma total ORAC (mean)” value ([5]; 24 hour post, same treatment) was 5700. The “Plasma total ORAC (mean)” value ([5]; 48 hour post, same treatment) was 4800, the “ORAC improvement by supplementation” value [5] was “not improved” and the NK cytotoxicity [15] was “significantly increased”. For the same compound, the “Plasma MDA (mean)” value ([6]; 24 hour post, same treatment) was 0.95, the “Plasma MDA compared between treatment groups” value ([6]; 24 hours post exercise, in words) was “lower than either the placebo value or the Vitamin E value” and the “Change in Plasma MDA from Baseline” value ([6]; Pre to 48 hour Post) was −0.004.
